# Assay results published in PubChem BioAssay AID2060618 (Molecular Pharmacology Branch, DTP, NCI, 2025).
# pIC50: −log10 of the molar value.
# Test system: 454973-116-R2-J3-PDC spheroids, percent test/control viability
# Experiment: Anticancer human tumor 454973-116-R2-J3-PDC patient-derived pancreatic carcinoma cell line growth inhibition [CLK]
# Settings: spheroids with HUVEC and MSC; for pIC50: curve of first compound; for viability, T/C: stronger effect = lower value
# How it was run: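 Multi-cell-type spheroids combined patient-derived tumor cells with HUVEC endothelial cells and human mesenchymal stem cells. Paired agents were dosed in half-log steps down from about clinical Cmax, or from 10 microM where Cmax was unknown.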
# [1] = second compound 0.0316 µM, first compound 0.0316 µM
# [2] = second compound 0.0316 µM, first compound 0.1 µM
# [3] = second compound 0.1 µM, first compound 0.0316 µM
# [4] = second compound 0.1 µM, first compound 0.1 µM
# [5] = second compound 0.316 µM, first compound 0.0316 µM
# [6] = second compound 0.316 µM, first compound 0.1 µM
# [7] = second compound 1 µM, first compound 0.0316 µM
# [8] = second compound 1 µM, first compound 0.1 µM
# [9] = second compound 3.16 µM, first compound 0.0316 µM
# [10] = second compound 3.16 µM, first compound 0.1 µM
# [11] = second compound 10 µM, first compound 0.0316 µM
# [12] = second compound 10 µM, first compound 0.1 µM
# 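Note: spheroids exposed to compounds for 7 days before readout.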
structure (smiles),measurement,setting,value
Cn1ncnc1[C@H]1c2n[nH]c(=O)c3cc(F)cc(c23)N[C@@H]1c1ccc(F)cc1 + CN1CCN(c2cc(C(=O)Nc3cc4cc(-c5cnn(C)c5)ccc4cn3)ccn2)CC1,pIC50,second compound 0.0316 µM,< 7.00
same,pIC50,second compound 0.1 µM,< 7.00
same,pIC50,second compound 0.316 µM,> 9.50
same,pIC50,second compound 1 µM,> 9.50
same,pIC50,second compound 3.16 µM,> 9.50
same,pIC50,second compound 10 µM,> 9.50
same,"viability, T/C","second compound 0.0316 µM, first compound 0.000316 µM",93.9%
same,"viability, T/C","second compound 0.0316 µM, first compound 0.001 µM",99%
same,"viability, T/C","second compound 0.0316 µM, first compound 0.00316 µM",90.5%
same,"viability, T/C","second compound 0.0316 µM, first compound 0.01 µM",92.9%
same,"viability, T/C",[1],91.2%
same,"viability, T/C",[2],85%
same,"viability, T/C","second compound 0.1 µM, first compound 0.000316 µM",75.4%
same,"viability, T/C","second compound 0.1 µM, first compound 0.001 µM",75%
same,"viability, T/C","second compound 0.1 µM, first compound 0.00316 µM",83.2%
same,"viability, T/C","second compound 0.1 µM, first compound 0.01 µM",71.3%
same,"viability, T/C",[3],59.1%
same,"viability, T/C",[4],50.1%
same,"viability, T/C","second compound 0.316 µM, first compound 0.000316 µM",1.91%
same,"viability, T/C","second compound 0.316 µM, first compound 0.001 µM",2.28%
same,"viability, T/C","second compound 0.316 µM, first compound 0.00316 µM",3.23%
same,"viability, T/C","second compound 0.316 µM, first compound 0.01 µM",4.91%
same,"viability, T/C",[5],2.64%
same,"viability, T/C",[6],2.84%
same,"viability, T/C","second compound 1 µM, first compound 0.000316 µM",0.1%
same,"viability, T/C","second compound 1 µM, first compound 0.001 µM",1.11%
same,"viability, T/C","second compound 1 µM, first compound 0.00316 µM",0.09%
same,"viability, T/C","second compound 1 µM, first compound 0.01 µM",0.08%
same,"viability, T/C",[7],0.09%
same,"viability, T/C",[8],0.1%
same,"viability, T/C","second compound 3.16 µM, first compound 0.000316 µM",0.09%
same,"viability, T/C","second compound 3.16 µM, first compound 0.001 µM",0.12%
same,"viability, T/C","second compound 3.16 µM, first compound 0.00316 µM",0.1%
same,"viability, T/C","second compound 3.16 µM, first compound 0.01 µM",1.05%
same,"viability, T/C",[9],1.67%
same,"viability, T/C",[10],0.12%
same,"viability, T/C","second compound 10 µM, first compound 0.000316 µM",0.11%
same,"viability, T/C","second compound 10 µM, first compound 0.001 µM",0.16%
same,"viability, T/C","second compound 10 µM, first compound 0.00316 µM",0.17%
same,"viability, T/C","second compound 10 µM, first compound 0.01 µM",0.29%
same,"viability, T/C",[11],0.12%
same,"viability, T/C",[12],0.14%
O=C(c1cc(Cc2n[nH]c(=O)c3ccccc23)ccc1F)N1CCN(C(=O)C2CC2)CC1 + CN1CCN(c2cc(C(=O)Nc3cc4cc(-c5cnn(C)c5)ccc4cn3)ccn2)CC1,pIC50,second compound 0.0316 µM,< 5.00
same,pIC50,second compound 0.1 µM,5.23
same,pIC50,second compound 0.316 µM,> 7.50
same,pIC50,second compound 1 µM,> 7.50
same,pIC50,second compound 3.16 µM,> 7.50
same,pIC50,second compound 10 µM,> 7.50
same,"viability, T/C",[1],99%
same,"viability, T/C",[2],99.5%
same,"viability, T/C","second compound 0.0316 µM, first compound 0.316 µM",101%
same,"viability, T/C","second compound 0.0316 µM, first compound 1 µM",115%
same,"viability, T/C","second compound 0.0316 µM, first compound 3.16 µM",94.7%
same,"viability, T/C","second compound 0.0316 µM, first compound 10 µM",71.8%
same,"viability, T/C",[3],75.8%
same,"viability, T/C",[4],77%
same,"viability, T/C","second compound 0.1 µM, first compound 0.316 µM",73.5%
same,"viability, T/C","second compound 0.1 µM, first compound 1 µM",75.7%
same,"viability, T/C","second compound 0.1 µM, first compound 3.16 µM",62.5%
same,"viability, T/C","second compound 0.1 µM, first compound 10 µM",38%
same,"viability, T/C",[5],1.44%
same,"viability, T/C",[6],2.27%
same,"viability, T/C","second compound 0.316 µM, first compound 0.316 µM",1.78%
same,"viability, T/C","second compound 0.316 µM, first compound 1 µM",1.98%
same,"viability, T/C","second compound 0.316 µM, first compound 3.16 µM",2.16%
same,"viability, T/C","second compound 0.316 µM, first compound 10 µM",2.03%
same,"viability, T/C",[7],0.12%
same,"viability, T/C",[8],0.14%
same,"viability, T/C","second compound 1 µM, first compound 0.316 µM",1.94%
same,"viability, T/C","second compound 1 µM, first compound 1 µM",0.08%
same,"viability, T/C","second compound 1 µM, first compound 3.16 µM",0.83%
same,"viability, T/C","second compound 1 µM, first compound 10 µM",0.08%
same,"viability, T/C",[9],0.13%
same,"viability, T/C",[10],0.21%
same,"viability, T/C","second compound 3.16 µM, first compound 0.316 µM",0.33%
same,"viability, T/C","second compound 3.16 µM, first compound 1 µM",0.13%
same,"viability, T/C","second compound 3.16 µM, first compound 3.16 µM",0.29%
same,"viability, T/C","second compound 3.16 µM, first compound 10 µM",0.27%
same,"viability, T/C",[11],1.42%
same,"viability, T/C",[12],0.14%
same,"viability, T/C","second compound 10 µM, first compound 0.316 µM",0.17%
same,"viability, T/C","second compound 10 µM, first compound 1 µM",0.13%
same,"viability, T/C","second compound 10 µM, first compound 3.16 µM",0.39%
same,"viability, T/C","second compound 10 µM, first compound 10 µM",0.22%
